Reference: patent US9512180B2, “Compstatin analogs” (THE REGENTS OF THE UNIVERSITY OF CALIFORNIA, priority 2012, dated 2016)
Where “and” joins values, the source holds several entries; their conditions need not be identical. Identical values can stand only once. Marks after values point to notes of the source that are not given here. Bridge positions count the residues as written; N and C are the ends. Square brackets hold non-standard residues; d marks the D form. Peptide text beside a SMILES is read from it. Trp(1-Me) = Cn1cc(C[C@H](N)C(=O)O)c2ccccc21

Experiments:
[1] = RP-HPLC relative lipophilicity (retention factor k, log k); assay type: physicochemical
Procedure: The effect of the hydrophobic content of compstatin family peptides on relative lipophilicity was evaluated using RP-HPLC, a widely applied indirect technique for the determination of the lipophilicity of drugs and drug candidates. The determination of log P by RP-HPLC is based on the measurement of the retention factor k between the mobile and stationary phase (Eq. 7) of the investigated compound:
[formula] where tR is the retention time of the analyte, and to is the elution time of an unretained analyte. The logarithm of the retention factor is linearly correlated with the logarithm of the partition coefficient log P=a log k+b (8). where a and b are the slope and intercept of the linear equation.
The determination of log P values requires calibration using structurally related compounds, and is beyond the scope of this study. Instead the log k values were used to indicate the relative lipophilicities of this compstatin peptide family.
HPLC experiments were carried out using an Agilent 1100 HPLC with UV detection at 280 nm at 25° C. Separations were performed on a Waters (Milford, Mass.) 4.6×150 mm XTerra MS C18 column with 5 μm pore size using a mobile phase of A: 10 mM phosphate buffer pH=7.4 containing 1% TFA, and B: acetonitrile. The purity of the peptides was verified by an isocratic separation at 28% B and a flow rate of 1 mL/min. Solutions containing 0.6-0.8 mg/mL of Peptides I, III, VI, IX and the parent peptide were prepared in methanol and diluted 5-times with the eluent. All five peptides eluted as single peaks indicating a high degree of purity (FIG. 10).
For the determination of the relative lipophilicities a solution containing each of the peptides was prepared from the stock solutions and injected in triplicate. […] A 0.5 mg/mL solution of aspartic acid was used as the unretained analyte for the determination of the column dead time, 1.439±0.003 min.
RP-HPLC was used to measure the hydrophobicity/lipophilicity content of the compstatin family peptides. The retention of a compound in RP-HPLC depends on its hydrophobicity/lipophilicity content, and is correlated to the octanol-water partition ratio. Lipophilicity describes the partitioning of a compound between an aqueous and a lipidic/hydrophobic environment, and is an essential physicochemical parameter to determine pharmacokinetic behavior according to ADME (absorption, distribution, metabolism, excretion) characterization. Because the compstatin family peptides consist of a hydrophobic and a polar surface, their ability to bind to the hydrophobic cavity of C3, while maintaining a solvent-exposed face has been evaluated here as lipohilicity content, measured by RP-HPLC. In addition, lipohilicity is inversely proportional to aqueous solubility, and therefore can be used to estimate solubility of the peptides in their free (unbound) state.

[2] = tested on: complement activation; details: alternative pathway-mediated erythrocyte lysis; cited from earlier work
[3] = tested on: Human fetal RPE cells; assay: RPE cell-based assay: confocal analysis of deposit-associated C5b-9 (normalized to ApoE); details: peptide 1 μM; for deposit-associated C5b-9 (C5b-9/ApoE) relative to positive control: ~24 hrs, mean±S.E.M., RPE cultures of three donors; for Confocal Imaging % of positive control: deposit-associated C5b-9 normalized to ApoE, Mean (S.E.M.)
Procedure: The in vitro drusen biogenesis model was employed. Human fetal RPE cells (Advanced Bioscience Resources, Alameda, Calif.) were cultured on Millipore HA porous supports (Millipore, Cat # PIHA 01250) in Miller medium (Maminishkis et al., 2006) supplemented with 5% fetal calf serum (FCS). Cultures derived from three different donor eyes were employed. Cells were rinsed with warm, sterile PBS and the insert membrane was excised with a scalpel and cut into small (˜4 mm^2) pieces which were placed in wells of a 96-well plate. To minimize effects of inter-culture variability, samples prepared from a single membrane were utilized for each experiment. The samples were rinsed in PBS and then exposed individually to the library of compstatin family peptides at 1 μM in FCS-free Miller medium containing 10% human complement serum (Innovative Research, Cat # IPLA-CSER AB, Lot # L12402). In preliminary experiments, compstatin family Peptides I, III, VI, VII, VIII, IX, and Parent (Table 7), were tested in the RPE cell assay at 100 μM and titrated by C5b-9 ELISA over a concentration range of 0.04-130 μM. […] Also from this assessment, Peptide VI, as well as Peptides I and III, were selected for further studies. Peptides I and III were chosen for comparative studies to Peptide VI, because they contain an arginine residue at position 1. The goal was to determine whether peptides containing arginine at position −1 (Peptide VI) or at position 1 (Peptides I and III) were potent complement inhibitors using the RPE cell assay and had improved aqueous solubility compared to previously known potent analogs. Negative control cells were exposed to Miller medium+5% FCS; positive control cells were exposed to Miller medium+10% human complement serum without inhibitory peptides. Experimental and control medium/inhibitor solutions were pre-mixed on a rocker at room temperature for 30 min, then warmed to 37° C., prior to placement on the samples and incubation for ˜24 hrs at 37° C. in a 7.0% CO2 incubator. Following the incubation period, the medium was removed and stored frozen prior to ELISA analysis. The cell/membrane samples were rinsed in PBS, fixed in cold 4% paraformaldehyde (PFA) in PBS for 20 min, and stored in 0.4% PFA until use in immunohistochemical assays.
Fixed samples were rinsed several times in PBS, embedded in 10% agarose (Type XI, Sigma-Aldrich, Cat # A3038) and sectioned at 100 μm on a vibratome. Sections were blocked with normal donkey serum ( 1/20 in PBT: PBS containing 0.5% bovine serum albumin and 0.1% Triton X-100) overnight at 4° C. The sections were then co-incubated in two primary antibodies (polyclonal goat anti-ApoE, Millipore Cat # AB947; 1/1000 in PBT, and mouse monoclonal anti-05b-9 aEll, Dako Cat # M0777; 1/200 in PBT) overnight at 4° C., then rinsed in PBT and co-incubated in secondary antibodies (Alexa Fluor 546-conjugated donkey anti-goat IgG and Alexa Fluor 488-conjugated donkey anti-mouse IgG, both 1/200 in PBT; Life Technologies Cat # A-11056 and # A-21202) overnight at 4° C. Sections were rinsed in PBT, stained with Hoechst 33342 (Life Technologies Cat # H3570), and mounted on slides with Prolong Gold (Life Technologies Cat # P36930).
Samples were imaged on an Olympus FV1000 confocal laser scanning microscope. A total of 154 single-plane images were acquired at a resolution of 1024×768 pixels and the digital image files were saved in 24-bit tiff format. Digital image analysis was performed with MetaMorph software (Molecular Devices, Sunnyvale, Calif.). For the analysis, a standard measurement region, which included both the RPE cell monolayer and all of the adjacent sub-cellular deposits, was applied to each image. The Set Threshold Color Tool was utilized to analyze each color channel separately; the threshold tool creates a boundary around the objects being measured (i.e., sub-cellular deposits) on the basis of color intensity. […]

Compound	Retention factor (k) [1]	logk [1]	relative lipophilicity ([1]; isocratic 24% acetonitrile, pH=7.4 phosphate buffer)	IC50 [2]	deposit-associated C5b-9 (C5b-9/ApoE) relative to positive control ([3]; 10% human complement serum)	Confocal Imaging % of positive control [3]	Deposit-associated C5b9 (green channel) immunofluorescence, Integrated Area ([3]; RPE 020207, 10% human complement serum, one value per image)
CC[C@H](C)[C@H](N)C(=O)N[C@H]1CSSC[C@@H](C(=O)N[C@H](C(N)=O)[C@@H](C)O)NC(=O)[C@H](CCCN=C(N)N)NC(=O)[C@H](Cc2cnc[nH]2)NC(=O)[C@H](Cc2cnc[nH]2)NC(=O)CNC(=O)[C@H](Cc2c[nH]c3ccccc23)NC(=O)[C@H](CC(=O)O)NC(=O)[C@H](CCC(N)=O)NC(=O)[C@H](C(C)C)NC(=O)[C@H](C(C)C)NC1=O [Parent, ICV VQDWGH HRCT-NH2, reference compound]	2.472	0.393	least lipophilic	12 µM	83.2±5.9%	83.19 (5.92) % of positive control	
CC(=O)N[C@@H](CCCNC(=N)N)C(=O)N[C@H]1CSSC[C@@H](C(=O)N[C@H](C(N)=O)[C@@H](C)O)NC(=O)[C@H](CCCNC(=N)N)NC(=O)[C@H](Cc2c[nH]cn2)NC(=O)[C@H](C)NC(=O)CNC(=O)[C@H](Cc2c[nH]c3ccccc23)NC(=O)[C@H](CC(=O)O)NC(=O)[C@H](CCC(N)=O)NC(=O)[C@H](Cc2c[nH]c3ccccc23)NC(=O)[C@H](C(C)C)NC1=O [Peptide I, Ac- RCV WQDWGA HRCT-NH2] (Ac-RCVWQDWGAHRCT-NH2; disulfide 2-12)	2.828	0.451			55.3±12.3%	55.27 (12.30)^a % of positive control	
CC(=O)N[C@@H](CCCNC(=N)N)C(=O)N[C@H]1CSSC[C@@H](C(=O)N[C@H](C(N)=O)[C@@H](C)O)NC(=O)[C@H](CCCNC(=N)N)NC(=O)[C@H](Cc2c[nH]cn2)NC(=O)[C@H](C)NC(=O)CNC(=O)[C@H](Cc2c[nH]c3ccccc23)NC(=O)[C@H](CC(=O)O)NC(=O)[C@H](CCC(N)=O)NC(=O)[C@H](Cc2cn(C)c3ccccc23)NC(=O)[C@H](C(C)C)NC1=O [Peptide III, Ac- RCV meWQDWGA HRCT-NH2] (Ac-RCV[Trp(1-Me)]QDWGAHRCT-NH2; disulfide 2-12)	6.165	0.790			20.0±6.8%	19.98 (6.84) % of positive control	
CC[C@H](C)[C@H](NC(=O)[C@H](CO)NC(=O)[C@H](CCCNC(=N)N)NC(C)=O)C(=O)N[C@H]1CSSC[C@@H](C(=O)N[C@H](C(N)=O)[C@@H](C)O)NC(=O)[C@H](CCCNC(=N)N)NC(=O)[C@H](Cc2c[nH]cn2)NC(=O)[C@H](C)NC(=O)CNC(=O)[C@H](Cc2c[nH]c3ccccc23)NC(=O)[C@H](CC(=O)O)NC(=O)[C@H](CCC(N)=O)NC(=O)[C@H](Cc2cn(C)c3ccccc23)NC(=O)[C@H](C(C)C)NC1=O [Peptide VI, Ac-RS-ICV meWQDWGA HRCT-NH2]	9.913	0.996			14.9±5.6%	14.85 (5.61) % of positive control	86318 pixels and 70370 pixels and 77727 pixels and 91254 pixels and 59969 pixels
